From patent US20140066389A1, “METHOD AND PHARMACEUTICAL TO TREAT SPINAL DISCS” (priority 2000, published 2014)

System: spinal disc
Assay: Disc injections containing only one constituent
Format: in vivo
Conditions: injections with only one of glucosamine and chondroitin sulfate
Text: Common to all formulations according to this invention is the inclusion, in an injectable tolerated by the spinal disc, of both glucosamine and chondroitin sulfate (in a buffered injectable solution).

## N[C@H]1C(O)O[C@H](CO)[C@@H](O)[C@@H]1O (some centres unmarked) [glucosamine]
  value of the injection: without value

## chondroitin sulfate
  value of the injection: without value
